Experimental data reported in US20250144067A1, “PERSONALIZED STARVATION THERAPY FOR CANCER” (Faeth Therapeutics, Inc., priority 2021, published 2025).
Where a name gives a salt, the structure may show the parent alone. Read-outs that look alike come from different tables or passages of the source.

Assays:
[1] = test system: NCI-H292 lung cancer cells; assay: FDA drug screening, complete media vs cholesterol-free media without statin (TABLE 1); format: cell-based, human
[2] = test system: NCI-H292 lung cancer cells; assay: FDA drug screening, complete media vs cholesterol-free media with simvastatin (TABLE 2); format: cell-based, human
[3] = Complete minus Cholesterol-free, >0 enhanced anti-cancer activity, about 0 neutral, <0 antagonist
[4] = NCI-H292 cells, cholesterol-free media without statin, FDA drug library screen
[5] = NCI-H292 cells, complete media, FDA drug library screen
[6] = NCI-H292 cells, drug in cholesterol-free media with simvastatin 0.04 μM
[7] = NCI-H292 cells, drug in complete media
[8] = complete media vs cholesterol-free media + simvastatin (0.04 μM), >0 enhanced anti-cancer activity, about 0 neutral, <0 antagonist
[9] = Complete minus Cholesterol-free, greater than 0 enhanced anti-cancer activity, about 0 neutral, below 0 antagonists
[10] = NCI-H292 cells in cholesterol-free media without statin
[11] = NCI-H292 cells in complete media
[12] = NCI-H292 cells, FDA drug library screen, cholesterol-free media with simvastatin 0.04 μM
[13] = NCI-H292 cells, FDA drug library screen, complete media
[14] = complete media minus cholesterol-free media + simvastatin, >0 enhanced anti-cancer activity, about 0 neutral, <0 antagonist
[15] = NCI-H292 cells, cholesterol-free media without statin
[16] = complete vs cholesterol-free media, greater than 0 enhanced anti-cancer activity, about 0 neutral, below 0 antagonists
[17] = NCI-H292 cells, cholesterol-free media with simvastatin 0.04 μM, FDA drug library screen (TABLE 2)
[18] = NCI-H292 cells, complete media, FDA drug library screen (TABLE 2)
[19] = complete media minus cholesterol-free media + simvastatin (0.04 μM), >0 enhanced anti-cancer activity, about 0 neutral, <0 antagonist
[20] = Complete minus Cholesterol-free, greater than 0 enhanced anti-cancer activity, about 0 neutral, below 0 antagonist
[21] = NCI-H292 cells, FDA drug library screen, cholesterol-free media without statin

SMILES: CCCN(CCC)S(=O)(=O)c1ccc(C(=O)O)cc1 [Probenecid]
- Difference [1, 3]: −0.02
- Cholesterol-free [1, 4]: 0.9245
- Complete [1, 5]: 0.9089
- Cholesterol-free media + simvastatin (0.04 μM) [2, 6]: 1.512
- Complete Media [2, 7]: 1.266
- Difference [2, 8]: −0.25

SMILES: CC(C)(Sc1cc(C(C)(C)C)c(O)c(C(C)(C)C)c1)Sc1cc(C(C)(C)C)c(O)c(C(C)(C)C)c1 [Probucol]
- Difference [1, 9]: −0.87
- Cholesterol-free [1, 10]: 1.75
- Complete [1, 11]: 0.8825
- Cholesterol-free media + simvastatin (0.04 μM) [2, 6]: 1.293
- Complete Media [2, 7]: 1.087
- Difference [2, 8]: −0.21

SMILES: CCN(CC)CCNC(=O)c1ccc(N)cc1 [Procainamide (hydrochloride)]
- Difference [1, 9]: −0.51
- Cholesterol-free [1, 10]: 1.397
- Complete [1, 11]: 0.8831
- Cholesterol-free media + simvastatin (0.04 μM) ([2]; NCI-H292 cells, FDA library drug in cholesterol-free media with simvastatin 0.04 μM): 1.529
- Complete Media ([2]; NCI-H292 cells, FDA library drug in complete media): 1.165
- Difference [2, 8]: −0.36

SMILES: CNNCc1ccc(C(=O)NC(C)C)cc1 [Procarbazine (Hydrochloride)]
- Difference [1, 9]: −0.50
- Complete [1, 11]: 1.119
- Cholesterol-free media + simvastatin (0.04 μM) [2, 12]: 0.7556
- Complete Media [2, 13]: 1.193
- Difference [2, 14]: 0.44

SMILES: OC(CCN1CCCC1)(c1ccccc1)C1CCCCC1 (stereo not shown) [Procyclidine (hydrochloride)]
- Cholesterol-free [1, 15]: 1.459
- Complete ([1]; NCI-H292 cells, complete media): 0.997
- Difference [1, 16]: −0.46
- Cholesterol-free media + simvastatin (0.04 μM) [2, 6]: 1.237
- Complete Media [2, 7]: 1.076
- Difference [2, 8]: −0.16

SMILES: CC(=O)[C@H]1CC[C@H]2[C@@H]3CCC4=CC(=O)CC[C@]4(C)[C@H]3CC[C@]12C [Progesterone]
- Cholesterol-free [1, 15]: 1.057
- Complete ([1]; NCI-H292 cells, complete media): 0.6641
- Difference [1, 16]: −0.39
- Cholesterol-free media + simvastatin (0.04 μM) [2, 12]: 1.054
- Complete Media [2, 13]: 0.9232
- Difference [2, 8]: −0.13

SMILES: CCCN(CCC)C(=O)C(CCC(=O)O)NC(=O)c1ccccc1 (stereo not shown) [Proglumide (sodium)]
- Difference [1, 3]: −0.28
- Cholesterol-free [1, 15]: 1.258
- Complete ([1]; NCI-H292 cells, complete media): 0.9781
- Cholesterol-free media + simvastatin (0.04 μM) [2, 6]: 1.215
- Complete Media [2, 7]: 0.9616
- Difference [2, 8]: −0.25

SMILES: CCCN(CCC)C(=O)C(CCC(=O)O)NC(=O)c1ccccc1 (stereo not shown) [Proglumide]
- Cholesterol-free [1, 4]: 0.7154
- Complete [1, 5]: 1.407
- Difference ([1]; complete vs cholesterol-free media, >0 enhanced anti-cancer activity, about 0 neutral, <0 antagonist): 0.69
- Cholesterol-free media + simvastatin (0.04 μM) [2, 17]: 0.8053
- Complete Media [2, 18]: 0.7842
- Difference [2, 19]: −0.02

SMILES: [H]/N=C(\N/C(=N/[H])Nc1ccc(Cl)cc1)NC(C)C [Proguanil]
- Difference [1, 20]: −0.09
- Cholesterol-free [1, 21]: 1.148
- Complete [1, 13]: 1.059
- Cholesterol-free media + simvastatin (0.04 μM) [2, 6]: 1.355
- Difference [2, 8]: −0.18

SMILES: CN(C)CCCN1c2ccccc2Sc2ccccc21 [Promazine (hydrochloride)]
- Difference [1, 20]: −0.18
- Cholesterol-free [1, 21]: 1.243
- Complete [1, 13]: 1.064
- Cholesterol-free media + simvastatin (0.04 μM) [2, 12]: 0.8407
- Complete Media [2, 13]: 0.9785
- Difference [2, 14]: 0.14

SMILES: CCCOc1ccc2c(c1)CC[C@@H]1[C@@H]2CC[C@]2(C)[C@@H](OC)CC[C@@H]12 [Promestriene]
- Difference ([1]; Complete minus Cholesterol-free, […]): −0.77
- Cholesterol-free [1, 10]: 1.741
- Complete [1, 11]: 0.9695
- Cholesterol-free media + simvastatin (0.04 μM) ([2]; NCI-H292 cells, cholesterol-free media with simvastatin 0.04 μM, […]): 0.8092
- Complete Media ([2]; NCI-H292 cells, complete media, […]): 0.9277
- Difference ([2]; complete media minus cholesterol-free media + simvastatin, […]): 0.12

SMILES: CCCNCC(O)COc1ccccc1C(=O)CCc1ccccc1 (stereo not shown) [Propafenone (hydrochloride)]
- Difference [1, 3]: 0.02
- Cholesterol-free [1, 4]: 1.064
- Complete [1, 5]: 1.086
- Cholesterol-free media + simvastatin (0.04 μM) [2, 17]: 1.11
- Complete Media [2, 18]: 1.1
- Difference [2, 19]: −0.01

SMILES: CC(C)[N+](C)(CCOC(=O)C1c2ccccc2Oc2ccccc21)C(C)C.[Br-] [Propantheline (bromide)]
- Difference [1, 3]: −0.02
- Cholesterol-free [1, 4]: 1.311
- Complete [1, 5]: 1.294
- Cholesterol-free media + simvastatin (0.04 μM) ([2]; NCI-H292 cells, cholesterol-free media with simvastatin 0.04 μM, cell growth value in FDA drug screen): 1.413
- Complete Media ([2]; NCI-H292 cells, complete media, cell growth value in FDA drug screen): 1.449
- Difference [2, 14]: 0.04

SMILES: CCCOc1ccc(C(=O)OCCN(CC)CC)cc1N [Proparacaine (Hydrochloride)]
- Cholesterol-free [1, 15]: 1.255
- Complete ([1]; NCI-H292 cells, complete media): 0.8769
- Difference [1, 16]: −0.38
- Cholesterol-free media + simvastatin (0.04 μM) [2, 12]: 0.544
- Complete Media [2, 13]: 1.021
- Difference [2, 14]: 0.48

SMILES: CC(C)c1cccc(C(C)C)c1O [Propofol]
- Cholesterol-free [1]: 0.9745
- Complete [1]: 0.7898
- Difference [1]: −0.18
- Cholesterol-free media + simvastatin (0.04 μM) [2]: 1.559
- Complete Media [2]: 1.224
- Difference [2]: −0.33
